Data on two compounds can be found in publication PMC12514245, “Impaired migration and lung invasion of human melanoma by a novel small molecule targeting the transmembrane domain of death receptor p75^NTR” (EMBO Molecular Medicine, 2025).

The test system of one data set is A875 shp75 cells. Nature of the data set: Cell viability (Presto Blue), A875 shp75. The class given is cell-based, human. Conditions: for viability at 5 µM: Div17E5 5 uM. On the procedure: To measure the cytotoxic effect of Div17E5, A875 NT or shp75 cells were seeded at 2000 cells per well (in 100 μL DMEM) in a 96-well plate and incubated for 12 h. Next, Div17E5 at various concentrations was added and incubated at 37 °C in 5% CO2 for 2 days. Following treatment, 10 μL Presto Blue® (resazurin, ThermoFIsher) was added to each well of the 96-well plate and incubated for 2 h at 37 °C in 5% CO2. Cellular fluorescence in each well was measured at 535 nm excitation and 615 nm emission using a microtiter plate reader. Data was converted into the relative cell viability (%) from the fluorescence of cells in each treatment relative to that of the DMSO control group (set as 100%).

The test system of data set [1] is fascin in Triton-insoluble fraction of A875 NT cells. Nature of the data set: Detergent-insolubility assay of fascin, A875 NT. It counts as cell-based, human. Conditions: for Fold change (compared to untreated cells): insoluble/total fascin. The method, then: A single cell suspension was obtained by trypsinization followed by centrifugation and detergent extraction with lysis buffer (with 0.5% Triton X-100). Then, immediately centrifuged at 8700 g for 3 min. The resulting pellets (containing the Triton X-100-resistant proteins) were suspended in lysis buffer without Triton X-100. In parallel, cells were centrifuged and then directly suspended in lysis buffer. The Triton X-100- resistant proteins and total cell lysates were analyzed by SDS–PAGE and Western blotting with anti-fascin antibody.

For data set [2], the system named is A875-shp75 melanoma xenograft. Nature of the data set: Melanoma lung invasion assay, A875-shp75, delayed treatment 3 weeks after cell injection. The class given is in vivo, SCID mice. The method, then: Finally, we investigated whether delayed administration of Np75-4A22 was able to affect engraftment and growth of metastatic tumors in the lung. To this end, drug treatment (orally at 200 mg/kg) was initiated 3 weeks after intravenous injection of A875-NT or A875-shp75 cells in female SCID mice and continued for additionally 4 weekly cycles (5 days on/2 days off) as above (Fig. 8E). Metastatic spread to the lungs was monitored weekly by bioluminescent imaging of luciferase-expressing melanoma cells. […] We conclude that Np75-4A22 can be efficacious at reducing the spread and seeding of melanoma cells in the lung when administered either before or after cell implantation.
Eight-week-old female SCID mice (Charles River Laboratories, Shrewsbury, MA, USA) were housed in groups of three to five and maintained on a 12-h light/dark schedule with a temperature of 22 °C ± 1 °C and a relative humidity of 50% ± 5%. Food and water were available ad libitum. This research study was reviewed and approved by the University of Calgary Animal Care Committee (AC22-0054) and McGill University (AUP-JGH-8269) and adheres to established ethical principles and guidelines. A875-GFPLuc (A875-NT) or A875-GFPLuc shp75 (A875-shp75) cells harvested using Puck’s EDTA were resuspended in PBS and injected intravenously into SCID mice (5 × 10^5 cells/200 μl per mouse). Np75-4A22 was dissolved in 0.5% sodium carboxymethyl cellulose (NaCMC) in reverse osmosis H2O and administered by oral gavage at 200 mg/kg/day starting one day prior to intravenous (tail vein) injection of tumor cells and continued for 3 1-week cycles (cycle: 5 days on drug, 2 days off drug). Tumor spread to the lung was monitored weekly by luciferase activity using the Xenogen IVIS-200 Optical in vivo luciferase imaging system as described previously (Lun et al, [2016]) and by immunohistochemistry (IHC) at designated time points. IHC was performed after formalin fixation, paraffin embedding and sectioning of the lungs, using a human-specific mouse polyclonal nucleolin antibody (1:500 dilution) and detected using Dako liquid DAB+ Substrate Chromogen System (Dako: k3468, California, USA) followed by a hematoxylin counterstain (Sigma, Oakville, ON, Canada). Sections were mounted and imaged on an Olympus phase contrast microscope (Olympus Life Science, Tokyo, Japan). For immunofluorescence, sections were stained with anti-human nucleolin and anti-human p75NTR antibodies (1:1000 dilution), subsequently detected with 1:200 dilutions of Alexa Fluor™ 488 Goat anti-Mouse IgG (H + L) Highly Cross-Adsorbed Secondary Antibody and Alexa Fluor™ 568 Goat anti-Rabbit IgG (H + L) Cross-Adsorbed Secondary Antibody. Sections were further stained with DAPI to detect all nuclei. Between each treatment, TBS Automation Wash Buffer (Biocare Medical TWB945M) was employed. Images were taken with LSM800 confocal microscope and ZEN system.

Where “and” joins values, the source holds several entries; their conditions need not be identical. Identical values can stand only once. Like-named read-outs stand apart in the source and are kept apart here.

For `Oc1ccc(-c2cncc(Nc3ccc(Br)c(Cl)c3)n2)cc1` [Div17E5], the “Cell Viability, n1-n3” value in the data set on A875 shp75 cells (Div17E5 0.5 uM, 2 days) was 104%; in the data set with A875 shp75 cells (Div17E5 1 uM, 2 days) it was 109% and 112%; in the data set on A875 shp75 cells (Div17E5 1.5 uM, 2 days) it was 100%; in the data set on A875 shp75 cells (Div17E5 2 uM, 2 days), 96% and 100%; in the data set on A875 shp75 cells (Div17E5 2.5 uM, 2 days), 90% and 99%; in the data set with A875 shp75 cells (Div17E5 7.5 uM, 2 days), 81% and 91%. The “Cell Viability, n1-n3” value in the data set with A875 shp75 cells (Div17E5 10 uM, 2 days) is 90% and 78%. Besides, the viability at 0.5 µM with A875 shp75 cells (Homo sapiens, A875, 48 h, Div17E5 0.5 uM, 2 days, N=3) worked out at 103%. Further, the viability at 2 µM in the data set on A875 shp75 cells (Homo sapiens, A875, 48 h, Div17E5 2 uM, 2 days, N=3, read-out: Cell Viability, Mean) was found to be 101%; with A875 shp75 cells (Homo sapiens, A875, 48 h, Div17E5 2 uM, 2 days, read-out: Cell Viability, n1-n3) it was 107%. In addition, the viability at 2.5 µM in the data set on A875 shp75 cells (Homo sapiens, A875, 48 h, Div17E5 2.5 uM, 2 days, N=3, read-out: Cell Viability, Mean) was determined as 92%; in the data set with A875 shp75 cells (Homo sapiens, A875, 48 h, Div17E5 2.5 uM, 2 days, read-out: Cell Viability, n1-n3), 86%. Also, the viability at 5 µM came out at 93% with A875 shp75 cells (Homo sapiens, A875, 48 h, 2 days, N=3, read-out: Cell Viability, Mean) and 101% in the data set with A875 shp75 cells (Homo sapiens, A875, 48 h, 2 days, read-out: Cell Viability, n1-n3). Further, the viability at 7.5 µM worked out at 86% with A875 shp75 cells (Homo sapiens, A875, 48 h, Div17E5 7.5 uM, 2 days, N=3, read-out: Cell Viability, Mean) and 85% with A875 shp75 cells (Homo sapiens, A875, 48 h, Div17E5 7.5 uM, 2 days, read-out: Cell Viability, n1-n3). Also, the viability at 10 µM in the data set with A875 shp75 cells (Homo sapiens, A875, 48 h, Div17E5 10 uM, 2 days, N=3, read-out: Cell Viability, Mean) came to 84%; in the data set with A875 shp75 cells (Homo sapiens, A875, 48 h, Div17E5 10 uM, 2 days, read-out: Cell Viability, n1-n3) it was 85%. Moreover, the cell viability entry with A875 shp75 cells (above 10 μM) is reported as “sensitive”; in the data set on A875 shp75 cells (doses up to 10 μM) it was “largely refractory”.
On to `Cc1cccc(-c2cncc(Nc3ccc(Br)c(Cl)c3Cl)n2)c1C` [Np75-4A22], for which the “Toral fascin without background” value in data set [1] (1 μM 4A22, band OD, n1-n3) is 39995.1 and 74813.2 and 39347.1. Also, the “Fold change (compared to untreated cells)” value in data set [1] (1 μM 4A22, n1-n3) is 0.751 and 0.708 and 0.695; in data set [1] (NGF + 1 μM 4A22, n1-n3) it was 0.947 and 0.577 and 0.569. Also, the “NGF-increased fascin in detergent insoluble fraction” value in data set [1] (1 μM, NGF 100 ng/ml) is recorded as “blocked this effect”. In data set [2] (group average, wk2), the “Average Photons/second/week, wk2” value worked out at 9.88E+04 Photons/second. For the same compound, the “Average Photons/second/week, wk3” value in data set [2] (group average, wk3) amounted to 1.46E+05 Photons/second. The “Average Photons/second/week, wk4” value in data set [2] (group average, wk4) was found to be 1.10E+05 Photons/second. For the same compound, the “Average Photons/second/week, wk5” value in data set [2] (group average, wk5) is 2.77E+05 Photons/second. For the same compound, in data set [2] (group average, wk6), the “Average Photons/second/week, wk6” value came out at 4.60E+05 Photons/second. Also, the “Average Photons/second/week, wk7” value in data set [2] (group average, wk7) is 1.10E+06 Photons/second. Also, the “Photons/second/ mouse/week, wk2” value in data set [2] (individual mouse, wk2) was 1.05E+05 Photons/second and 6.22E+04 Photons/second and 8.27E+04 Photons/second and 9.38E+04 Photons/second and 1.02E+05 Photons/second and 8.99E+04 Photons/second and 1.49E+05 Photons/second and 1.09E+05 Photons/second and 9.56E+04 Photons/second. Further, the “Photons/second/ mouse/week, wk3” value in data set [2] (individual mouse, wk3) is 1.10E+05 Photons/second and 1.18E+05 Photons/second and 1.42E+05 Photons/second and 1.47E+05 Photons/second and 1.39E+05 Photons/second and 1.86E+05 Photons/second and 1.67E+05 Photons/second and 1.65E+05 Photons/second and 1.36E+05 Photons/second. Also, the “Photons/second/ mouse/week, wk4” value in data set [2] (individual mouse, wk4) was 1.43E+05 Photons/second and 9.53E+04 Photons/second and 1.42E+05 Photons/second and 1.00E+05 Photons/second and 1.24E+05 Photons/second and 1.66E+05 Photons/second and 4.36E+04 Photons/second and 7.52E+04 Photons/second and 1.02E+05 Photons/second. Further, the “Photons/second/ mouse/week, wk5” value in data set [2] (individual mouse, wk5) is 1.26E+05 Photons/second and 1.70E+05 Photons/second and 1.58E+05 Photons/second and 1.31E+05 Photons/second and 1.75E+05 Photons/second and 1.89E+05 Photons/second and 1.28E+05 Photons/second and 4.29E+05 Photons/second and 9.90E+05 Photons/second. Besides, the “Photons/second/ mouse/week, wk6” value in data set [2] (individual mouse, wk6) is 2.09E+05 Photons/second and 1.96E+05 Photons/second and 2.02E+05 Photons/second and 2.61E+05 Photons/second and 6.18E+04 Photons/second and 1.19E+05 Photons/second and 3.83E+05 Photons/second and 2.25E+06 Photons/second. In addition, the “Photons/second/ mouse/week, wk7” value in data set [2] (individual mouse, wk7) was 1.96E+05 Photons/second and 1.65E+05 Photons/second and 3.28E+05 Photons/second and 1.98E+06 Photons/second and 3.78E+06 Photons/second.

As a reminder, the viability is a read-out of living cells in per cent, often relative to untreated cells.
